Values of other authors in patent US9857359B2, “Methods for determining drug efficacy using cereblon-associated proteins” (CELGENE CORPORATION, priority 2012, dated 2018).

Target: CRBN (Homo sapiens, UniProt Q96SW2)
Conditions: in vitro; Ito et al., Science 2010; cited from earlier work

Sequence of CRBN (Q96SW2 whole entry): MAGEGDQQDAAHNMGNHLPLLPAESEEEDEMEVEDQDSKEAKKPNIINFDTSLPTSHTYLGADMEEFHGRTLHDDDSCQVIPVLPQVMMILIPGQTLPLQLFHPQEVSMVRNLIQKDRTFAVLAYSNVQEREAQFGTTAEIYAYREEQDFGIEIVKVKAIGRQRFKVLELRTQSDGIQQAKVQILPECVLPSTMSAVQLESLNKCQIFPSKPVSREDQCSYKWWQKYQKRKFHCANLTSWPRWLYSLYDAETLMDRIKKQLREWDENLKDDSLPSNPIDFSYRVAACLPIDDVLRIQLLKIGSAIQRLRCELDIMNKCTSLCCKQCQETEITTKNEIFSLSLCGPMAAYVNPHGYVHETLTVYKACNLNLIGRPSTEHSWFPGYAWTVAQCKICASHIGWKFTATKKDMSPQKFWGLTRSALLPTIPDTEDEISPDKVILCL
Sequence of CRBN (Q16531 whole entry partner): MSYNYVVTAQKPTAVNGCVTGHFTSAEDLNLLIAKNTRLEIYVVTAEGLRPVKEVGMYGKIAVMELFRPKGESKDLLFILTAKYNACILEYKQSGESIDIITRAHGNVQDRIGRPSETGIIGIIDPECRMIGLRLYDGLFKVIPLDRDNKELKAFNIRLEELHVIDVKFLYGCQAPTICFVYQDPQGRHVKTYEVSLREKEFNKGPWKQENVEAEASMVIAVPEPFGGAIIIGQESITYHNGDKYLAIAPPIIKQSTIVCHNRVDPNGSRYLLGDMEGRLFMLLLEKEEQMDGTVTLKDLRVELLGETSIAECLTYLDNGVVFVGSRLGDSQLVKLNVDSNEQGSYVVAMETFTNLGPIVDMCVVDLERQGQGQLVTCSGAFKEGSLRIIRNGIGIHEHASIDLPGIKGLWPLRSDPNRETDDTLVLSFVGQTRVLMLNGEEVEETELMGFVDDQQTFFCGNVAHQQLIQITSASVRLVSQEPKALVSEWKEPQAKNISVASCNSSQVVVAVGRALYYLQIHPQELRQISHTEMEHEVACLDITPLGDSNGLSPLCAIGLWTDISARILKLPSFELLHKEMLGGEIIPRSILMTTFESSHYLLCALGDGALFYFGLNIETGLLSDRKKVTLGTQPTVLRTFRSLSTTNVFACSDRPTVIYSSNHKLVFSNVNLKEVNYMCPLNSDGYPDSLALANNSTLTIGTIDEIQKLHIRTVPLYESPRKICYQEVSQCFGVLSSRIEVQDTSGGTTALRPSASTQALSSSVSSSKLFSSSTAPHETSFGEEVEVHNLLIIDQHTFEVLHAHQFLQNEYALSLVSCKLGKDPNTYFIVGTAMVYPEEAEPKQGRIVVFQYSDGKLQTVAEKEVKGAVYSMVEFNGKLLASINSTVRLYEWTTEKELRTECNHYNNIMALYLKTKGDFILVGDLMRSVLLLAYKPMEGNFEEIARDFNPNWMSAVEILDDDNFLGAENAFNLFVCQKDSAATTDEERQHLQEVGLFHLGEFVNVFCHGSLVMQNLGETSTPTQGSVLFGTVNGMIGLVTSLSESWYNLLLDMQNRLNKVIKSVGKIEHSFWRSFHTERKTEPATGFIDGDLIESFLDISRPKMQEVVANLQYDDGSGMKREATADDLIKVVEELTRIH
Sequence of CRBN (Q13619 whole entry partner): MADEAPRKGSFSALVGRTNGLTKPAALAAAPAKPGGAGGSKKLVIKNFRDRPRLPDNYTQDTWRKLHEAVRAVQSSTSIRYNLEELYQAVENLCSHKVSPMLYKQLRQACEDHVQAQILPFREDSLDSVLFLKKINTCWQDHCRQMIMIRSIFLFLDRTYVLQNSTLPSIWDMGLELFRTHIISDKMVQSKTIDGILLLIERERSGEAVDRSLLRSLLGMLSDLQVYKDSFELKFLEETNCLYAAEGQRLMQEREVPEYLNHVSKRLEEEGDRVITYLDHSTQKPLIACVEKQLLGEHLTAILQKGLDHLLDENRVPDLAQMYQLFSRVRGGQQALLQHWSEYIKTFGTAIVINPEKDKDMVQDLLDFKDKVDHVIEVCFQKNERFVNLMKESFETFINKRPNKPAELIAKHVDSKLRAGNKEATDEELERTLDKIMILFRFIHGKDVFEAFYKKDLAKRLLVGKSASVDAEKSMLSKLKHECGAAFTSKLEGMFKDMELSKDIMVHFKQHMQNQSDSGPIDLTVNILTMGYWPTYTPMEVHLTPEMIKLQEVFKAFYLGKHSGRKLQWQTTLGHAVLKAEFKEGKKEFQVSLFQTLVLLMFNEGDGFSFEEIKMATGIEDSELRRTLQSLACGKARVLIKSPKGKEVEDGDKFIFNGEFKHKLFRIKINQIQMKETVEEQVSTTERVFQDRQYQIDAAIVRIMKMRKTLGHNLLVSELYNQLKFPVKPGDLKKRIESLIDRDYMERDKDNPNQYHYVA
Sequence of CRBN (P62877 whole entry partner): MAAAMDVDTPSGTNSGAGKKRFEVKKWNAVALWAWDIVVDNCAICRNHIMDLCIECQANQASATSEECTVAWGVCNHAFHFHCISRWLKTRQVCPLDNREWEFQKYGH

## O=C1CCC(N2C(=O)c3ccccc3C2=O)C(=O)N1 (stereo not shown) [thalidomide]
  Auto-ubiquitination of CRBN: inhibit auto-ubiquitination of CRBN in vitro
